# Target: c-kit mutant D816V (Homo sapiens (Human), UniProt P10721, D816V/DEL694-753)
# Experiment: c-Kit mutant D816V biochemical assay (AlphaScreen kinase activity)
# Method in brief: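 Recombinant His-tagged c-Kit D816V kinase domain (residues 551-934, insert 694-753 deleted, E. coli-expressed) phosphorylating 30 nM biotin-(E4Y)10 with 10 μM ATP, HEPES pH 7.2, Mg/Mn, 5% DMSO; 30 min, room temperature. Phosphorylation detected by AlphaScreen (streptavidin donor/PY30 acceptor beads); IC50 from 8-point 1:3 series.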
# Chain of c-kit mutant D816V (P10721 other isoform, or with tags, fused parts or gaps D816V/del 694-753): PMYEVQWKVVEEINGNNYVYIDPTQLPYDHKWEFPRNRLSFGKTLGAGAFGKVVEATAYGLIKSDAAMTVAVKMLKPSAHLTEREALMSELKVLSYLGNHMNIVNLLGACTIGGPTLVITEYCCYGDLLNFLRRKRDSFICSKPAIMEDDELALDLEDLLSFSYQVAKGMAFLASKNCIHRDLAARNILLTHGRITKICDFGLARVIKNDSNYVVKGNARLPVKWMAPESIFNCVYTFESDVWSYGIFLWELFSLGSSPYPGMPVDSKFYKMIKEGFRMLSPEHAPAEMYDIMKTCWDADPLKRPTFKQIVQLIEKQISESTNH
row,Structure (SMILES),IC50 [µM]
1,"COc1ccc(-c2[nH]c(C3(C)CCN(c4ncnc5[nH]c(-c6cnn(C(F)F)c6)cc45)CC3)nc2C)cc1C [P-3154, 6-[1-(difluoromethyl)pyrazol-4-yl]-4-[4-[5-(4-methoxy-3-methyl-phenyl)-4-methyl-1H-imidazol-2-yl]-4-methyl-1-piperidyl]-7H-pyrrolo[2,3-d]pyrimidine]",0.0001 to 1
2,"Cc1nc(C2(C)CCN(c3ncnc4[nH]c(-c5cnn(C(F)F)c5)cc34)CC2)[nH]c1-c1ccc2c(c1)OCO2 [P-3155, 4-[4-[5-(1,3-benzodioxol-5-yl)-4-methyl-1H-imidazol-2-yl]-4-methyl-1-piperidyl]-6-[1-(difluoromethyl)pyrazol-4-yl]-7H-pyrrolo[2,3-d]pyrimidine]",0.0001 to 1
3,"COc1ccc(-c2[nH]c(C3(C)CCN(c4ncnc5[nH]c(-c6ccc(OC)nc6)cc45)CC3)nc2C)cc1 [P-3156, 4-[4-[5-(4-methoxyphenyl)-4-methyl-1H-imidazol-2-yl]-4-methyl-1-piperidyl]-6-(6-methoxy-3-pyridyl)-7H-pyrrolo[2,3-d]pyrimidine]",0.0001 to 1
4,"COc1ccc(-c2cc3c(N4CCC(C)(c5nc(C)c(-c6ccc(OC)c(C)c6)[nH]5)CC4)ncnc3[nH]2)cn1 [P-3157, 4-[4-[5-(4-methoxy-3-methyl-phenyl)-4-methyl-1H-imidazol-2-yl]-4-methyl-1-piperidyl]-6-(6-methoxy-3-pyridyl)-7H-pyrrolo[2,3-d]pyrimidine]",0.0001 to 1
5,"COc1ccc(-c2cc3c(N4CCC(C)(c5nc(C)c(-c6ccc7c(c6)OCO7)[nH]5)CC4)ncnc3[nH]2)cn1 [P-3158, 4-[4-[5-(1,3-benzodioxol-5-yl)-4-methyl-1H-imidazol-2-yl]-4-methyl-1-piperidyl]-6-(6-methoxy-3-pyridyl)-7H-pyrrolo[2,3-d]pyrimidine]",0.0001 to 1
6,"Cc1nc(C2(C)CCN(c3ncnc4[nH]c(-c5ccc(C#N)cc5)cc34)CC2)[nH]c1-c1ccc2c(c1)OCO2 [P-3159, 4-[4-[4-[5-(1,3-benzodioxol-5-yl)-4-methyl-1H-imidazol-2-yl]-4-methyl-1-piperidyl]-7H-pyrrolo[2,3-d]pyrimidin-6-yl]benzonitrile]",0.0001 to 1
7,"CCOc1ccc(-c2[nH]c(C3(C)CCN(c4ncnc5[nH]c(-c6ccc(C#N)cc6)cc45)CC3)nc2C)cc1C [P-3160, 4-[4-[4-[5-(4-ethoxy-3-methyl-phenyl)-4-methyl-1H-imidazol-2-yl]-4-methyl-1-piperidyl]-7H-pyrrolo[2,3-d]pyrimidin-6-yl]benzonitrile]",0.0001 to 1
8,"CCOc1ccc(-c2[nH]c(C3(C)CCN(c4ncnc5[nH]c(-c6ccc(C#N)cc6)cc45)CC3)nc2C)cc1 [P-3161, 4-[4-[4-[5-(4-ethoxyphenyl)-4-methyl-1H-imidazol-2-yl]-4-methyl-1-piperidyl]-7H-pyrrolo[2,3-d]pyrimidin-6-yl]benzonitrile]",0.0001 to 1
9,"Cc1nc(C2CCN(c3ncnc4[nH]c(-c5ccc(C#N)cc5)cc34)CC2)[nH]c1-c1ccc(C(F)F)cc1 [P-3162, 4-[4-[4-[5-[4-(difluoromethyl)phenyl]-4-methyl-1H-imidazol-2-yl]-1-piperidyl]-7H-pyrrolo[2,3-d]pyrimidin-6-yl]benzonitrile]",0.0001 to 1
10,"COc1ccc(-c2[nH]c(C3(C)CCN(c4ncnc5[nH]c(-c6ccc(C#N)cc6)cc45)CC3)nc2C)cc1F [P-3163, 4-[4-[4-[5-(3-fluoro-4-methoxy-phenyl)-4-methyl-1H-imidazol-2-yl]-4-methyl-1-piperidyl]-7H-pyrrolo[2,3-d]pyrimidin-6-yl]benzonitrile]",0.0001 to 1
11,"Cc1nc(C2(C)CCN(c3ncnc4[nH]c(-c5ccc(C#N)cc5)cc34)CC2)[nH]c1-c1ccc(C(F)F)cc1 [P-3164, 4-[4-[4-[5-[4-(difluoromethyl)phenyl]-4-methyl-1H-imidazol-2-yl]-4-methyl-1-piperidyl]-7H-pyrrolo[2,3-d]pyrimidin-6-yl]benzonitrile]",0.0001 to 1
12,"Cc1cc2c(N3CCC(C)(c4nc(C)c(-c5ccc(C(F)(F)F)cc5)[nH]4)CC3)ncnc2[nH]1 [P-3165, 6-methyl-4-[4-methyl-4-[4-methyl-5-[4-(trifluoromethyl)phenyl]-1H-imidazol-2-yl]-1-piperidyl]-7H-pyrrolo[2,3-d]pyrimidine]",0.0001 to 1
13,"COc1cccc(-c2[nH]c(C3(C)CCN(c4ncnc5[nH]c(C)cc45)CC3)nc2C)c1 [P-3166, 4-[4-[5-(3-methoxyphenyl)-4-methyl-1H-imidazol-2-yl]-4-methyl-1-piperidyl]-6-methyl-7H-pyrrolo[2,3-d]pyrimidine]",0.0001 to 1
14,"COc1cccc(-c2[nH]c(C3(C)CCN(c4ncnc5[nH]c(-c6ccc(C#N)cc6)cc45)CC3)nc2C)c1 [P-3167, 4-[4-[4-[5-(3-methoxyphenyl)-4-methyl-1H-imidazol-2-yl]-4-methyl-1-piperidyl]-7H-pyrrolo[2,3-d]pyrimidin-6-yl]benzonitrile]",0.0001 to 1
15,"COc1cccc(-c2[nH]c(C3(C)CCN(c4ncnc5[nH]c(-c6cnn(C(F)F)c6)cc45)CC3)nc2C)c1 [P-3168, 6-[1-(difluoromethyl)pyrazol-4-yl]-4-[4-[5-(3-methoxyphenyl)-4-methyl-1H-imidazol-2-yl]-4-methyl-1-piperidyl]-7H-pyrrolo[2,3-d]pyrimidine]",0.0001 to 1
16,"COc1cccc(-c2[nH]c(C3(C)CCN(c4ncnc5[nH]c(-c6ccc(OC)nc6)cc45)CC3)nc2C)c1 [P-3169, 4-[4-[5-(3-methoxyphenyl)-4-methyl-1H-imidazol-2-yl]-4-methyl-1-piperidyl]-6-(6-methoxy-3-pyridyl)-7H-pyrrolo[2,3-d]pyrimidine]",0.0001 to 1
17,"CCOc1ccc(-c2[nH]c(C3(C)CCN(c4ncnc5[nH]c(-c6cnn(C(F)F)c6)cc45)CC3)nc2C)cc1 [P-3170, 6-[1-(difluoromethyl)pyrazol-4-yl]-4-[4-[5-(4-ethoxyphenyl)-4-methyl-1H-imidazol-2-yl]-4-methyl-1-piperidyl]-7H-pyrrolo[2,3-d]pyrimidine]",0.0001 to 1
18,"Fc1ccc(-c2cc3c(N4CCC(c5nnc(-c6cccc(OC(F)F)c6)[nH]5)CC4)ncnc3[nH]2)cc1 [P-3204, 4-[4-[5-[3-(difluoromethoxy)phenyl]-4H-1,2,4-triazol-3-yl]-1-piperidyl]-6-(4-fluorophenyl)-7H-pyrrolo[2,3-d]pyrimidine]",0.0001 to 1
19,"COc1cc(-c2cc3c(N4CCC(c5nnc(-c6ccc(F)cc6)[nH]5)CC4)ncnc3[nH]2)ccn1 [P-3205, 4-[4-[5-(4-fluorophenyl)-4H-1,2,4-triazol-3-yl]-1-piperidyl]-6-(2-methoxy-4-pyridyl)-7H-pyrrolo[2,3-d]pyrimidine]",1 to 10

# From patent publication US9771369B2, “Compounds and methods for kinase modulation, and indications therefor” (Plexxikon Inc., priority 2014, dated 2017)
